Source: US20220304349A1, “Steviol Glycoside Compositions for Oral Ingestion or Use” (CARGILL, Incorporated, priority 2016, published 2022)

Columns and labels:
[1] = cited from earlier work
[2] = Equilibrium solubility: heating in deionized water at 80° C. for 15 minutes, cooling to room temperature, observation up to 4 days; type: physicochemical; design: key to equilibrium solubility at stated concentration: Clear solutions without precipitates are considered soluble; conditions: for equilibrium solubility: after 80° C. for 15 minutes, at room temperature, up to 4 days
Text: The composition can optionally be expressed in terms of the concentration of one or more steviol glycoside(s). […] Clear solutions without precipitates are considered soluble. Unless indicated otherwise herein, the term “solubility” refers to “equilibrium solubility.” […]

[3] = Instantaneous solubility: vigorous mixing with deionized water for 10 minutes at room temperature; type: physicochemical; design: key to instantaneous solubility at stated concentration: Clear solutions without precipitates are considered soluble; conditions: for improvement (increase) in instantaneous solubility over the pure rebaudioside: in the presence of compounds SG101-104 (fermentation derived composition); for concentration of the rebaudioside in the instantaneously soluble 0.37% solution of the fermentation composition: room temperature water; for instantaneous solubility: water, room temperature
Protocol: The composition can optionally be expressed in terms of the concentration of one or more steviol glycoside(s). […] Clear solutions without precipitates are considered soluble. Unless indicated otherwise herein, the term “solubility” refers to “equilibrium solubility.”
Instantaneous solubility is determined by mixing steviol glycoisde with deionized water vigorously for 10 minutes at room temperature. […] Clear solutions without precipitates are considered soluble.

[4] = Sweetness time intensity (TI) profile in water, SG composition Lot B versus RebM; type: in vivo, human; conditions: sweetness TI in water vs RebM
Protocol: Comparison of SG composition Lot B and RebM using TI for sweet.
Training: Descriptive panelists, who are highly trained and experienced on-call taste panelists, had four training sessions. They trained with sucrose references. Then they practiced scoring the samples using the scale on the ballot using a time intensity scale.
Testing: There was at least a 10 minute break in between samples. They were provided with filtered water, sparkling water, carrots, unsalted rice crackers and unsalted saltine crackers during break only. All samples were evaluated in a balanced sequential order one at a time. Panelists swallowed the sample at 10 seconds.
Serving Size/Container: 15 g in a 2 oz cup Serving Temp Room temperature
Sweetness Results (12 panelists; 3 replicates)

[5] = Sensory evaluation by experienced tasters in unsweetened black tea (Example 5, Test A); type: in vivo, human; conditions: about 200 ppm in tea
Protocol: (§1) Glycoside samples (SG101-104) were isolated and purified from fermentation broth, purified Rebs A, B, and D are of leaf origin and Reb M is chemically synthesized. All samples were dissolved in reverse osmosis water at the concentrations indicated. Unsweetened black tea was used in one set of experiments. Approximately 2-3 milliliters of each solution was tasted and sensory evaluations conducted by two to three experienced tasters. Test A

[6] = in vivo; cited from earlier work
[7] = Sensory evaluation by two to three experienced tasters, solutions in reverse osmosis water (Example 5, Tests A and B); type: in vivo, human
Protocol: as §1
As used herein, “sucrosey” means having a flavor profile, a sweetness profile, or a flavor profile and a sweetness pofile more similar to that of sucrose.

[8] = molecular target: T1, UGT 76G1 and EUGT11 (Stevia rebaudiana, UniProt Q6VAB4); test: Bioconversion of steviol glycosides with crude UGT enzyme preparations expressed in E. coli, LC-UV analysis; type: biochemical; conditions: UGT clone 76G1; 2 mM substrate fed, overnight at 30° C.
T1 construct: made in house; host or cells: E. coli XjB-autolysis BL21(DE3), pET30 vector, crude lysate
T1 sequence (Q6VAB4 1-458): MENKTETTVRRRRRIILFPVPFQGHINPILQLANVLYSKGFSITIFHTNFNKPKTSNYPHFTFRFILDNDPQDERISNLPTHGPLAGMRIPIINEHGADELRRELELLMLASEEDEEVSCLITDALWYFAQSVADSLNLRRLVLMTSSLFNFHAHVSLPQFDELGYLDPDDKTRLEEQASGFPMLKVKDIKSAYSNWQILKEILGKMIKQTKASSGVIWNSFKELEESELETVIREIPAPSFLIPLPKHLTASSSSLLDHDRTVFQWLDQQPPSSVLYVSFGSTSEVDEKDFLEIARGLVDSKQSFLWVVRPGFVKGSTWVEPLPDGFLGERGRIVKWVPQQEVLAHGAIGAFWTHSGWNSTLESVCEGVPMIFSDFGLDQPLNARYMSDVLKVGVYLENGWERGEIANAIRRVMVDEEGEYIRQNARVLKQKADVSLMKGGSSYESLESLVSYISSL
Protocol: The wildtype genes for UGTs EUGT11 and 76G1 are cloned individually into E. coli XjB-autolysis BL21(DE3) cells using the pET30 vector system from Novagen (EMD4 Biosciences, Madison, Wis.). All vectors use an IPTG-inducible promoter. Plasmid DNA is transformed into chemically competent cells as described by the vendor.
For in vitro assays, transformants displaying the desired antibiotic resistance are grown overnight at 30° C. in 2 mL cultures using NZCYM-media and antibiotic. The following day, the cultures are induced to a final concentration of 0.3 mM IPTG and 3 mM arabinose, and grown for 24 h at 20° C. The cells are then harvested by centrifugation at 4000 rpm for […] and resuspended in 200 μL GT-buffer (RBC Bioscience) and 3 tablets/100 ml of Complete mini, protease inhibitor (Roche), transferred to Eppendorf tubes, vortexed and frozen at −80° C. for 1.5 hour. Cells are thawed on ice, and left at room temperature for 3 minutes. When approximately half-way thawed, 15 μl of 0.14 mg/ml H2O DNase solution+30 μl 0.05M MgCl2 is added to each tube and the samples are incubated for approximately 5 minutes at room temperature. The cells are centrifuged at maximum speed for 5 minutes. One-hundred μL of supernatant (lysate) is transferred to fresh microfuge tubes, and 100 μL of glycerol is added. […]

C=C1C[C@@]23CC[C@H]4[C@@](C)(CCC[C@@]4(C)C(=O)O[C@@H]4O[C@H](CO)[C@@H](O)[C@H](O[C@@H]5O[C@H](CO)[C@@H](O)[C@H](O)[C@H]5O)[C@H]4O[C@@H]4O[C@H](CO)[C@@H](O)[C@H](O)[C@H]4O)[C@@H]2CC[C@]1(O[C@@H]1O[C@H](CO)[C@@H](O)[C@H](O[C@@H]2O[C@H](CO)[C@@H](O)[C@H](O)[C@H]2O)[C@H]1O[C@@H]1O[C@H](CO)[C@@H](O)[C@H](O)[C@H]1O)C3 [Reb M, rebaudioside M]
aqueous solubility in words [1]: poor aqueous solubility and dissolution qualities in beverage formulations | equilibrium solubility at stated concentration ([2]; 0.10%): soluble | equilibrium solubility at stated concentration ([2]; 0.13%): soluble | equilibrium solubility at stated concentration ([2]; 0.20%): soluble | equilibrium solubility at stated concentration ([2]; 0.30%): insoluble | equilibrium solubility [2]: at least 0.2% | equilibrium solubility ([2]; listed as rebaudioside M): about 0.2% | instantaneous solubility at stated concentration ([3]; 0.10%): soluble | instantaneous solubility at stated concentration ([3]; 0.13%): soluble | instantaneous solubility at stated concentration ([3]; 0.20%): insoluble | instantaneous solubility at stated concentration ([3]; 0.30%): insoluble | improvement (increase) in instantaneous solubility over the pure rebaudioside [3]: > 60% | concentration of the rebaudioside in the instantaneously soluble 0.37% solution of the fermentation composition [3]: 0.21% | concentration of the rebaudioside in the instantaneously soluble 0.37% solution of the fermentation composition ([3]; listed as reb M): about 0.21% | instantaneous solubility [3]: at least 0.13% | instantaneous solubility ([3]; listed as rebaudioside M): about 0.13% | Perimeter [4]: 58.3 | AUC ([4]; area under the curve (total)): 132.9a | Plateau Time ([4]; duration of peak intensity): 4.1a | Tdur ([4]; duration time of sensation): 35.4a | Imax ([4]; peak intensity, 12 panelists, 3 replicates): 5.9 | APostMax ([4]; post-peak area under the curve): 90.0a | APreMax ([4]; pre-peak area under the curve): 43.0 | Rate Decrease ([4]; slope after peak intensity): −0.2a | Rate Increase ([4]; slope before peak intensity): 0.7 | Tonset ([4]; time sensation is first perceived): 0.8 | Text ([4]; time to extinction): 36.3a | Sensory comments [5]: Nice subtle sweetness, feels like sugar, but with long linger very good | sweetness characteristics [6]: higher sweetness intensity and is more potent than other steviol glycosides | Sensory comments ([7]; 200 ppm in water, Test A): Typical mid-sweet for Reb M, fairly well rounded, quick rise, some tailing, some bitter | Sensory comments ([7]; 400 ppm in water, Test A): Higher sweet, faster onset than 200 ppm, cotton candy sweetness-skews to HFCS longer linger, sharper bitterness—but not oppressing sweetness | Sensory comments ([7]; Reb M alone in water, Test B, concentration not stated at the comment): clean, sweet, spiky sweetness

C=C1C[C@@]23CC[C@H]4[C@@](C)(CCC[C@@]4(C)C(=O)O[C@@H]4O[C@H](CO)[C@@H](O)[C@H](O)[C@H]4O[C@@H]4O[C@H](CO)[C@@H](O)[C@H](O)[C@H]4O)[C@@H]2CC[C@]1(O[C@@H]1O[C@H](CO)[C@@H](O)[C@H](O[C@@H]2O[C@H](CO)[C@@H](O)[C@H](O)[C@H]2O)[C@H]1O[C@@H]1O[C@H](CO)[C@@H](O)[C@H](O)[C@H]1O)C3 [Reb D, rebaudioside D]
amount that can be solubilized in water ([1]; 23° C.): 300 to 450 ppm | aqueous solubility in words [1]: low solubility in water at room temperature | equilibrium solubility at stated concentration ([2]; 0.08%): soluble | equilibrium solubility at stated concentration ([2]; 0.10%): insoluble | equilibrium solubility at stated concentration ([2]; 0.15%): insoluble | equilibrium solubility at stated concentration ([2]; 0.20%): insoluble | equilibrium solubility [2]: 0.08% | instantaneous solubility at stated concentration ([3]; 0.08%): insoluble | instantaneous solubility at stated concentration ([3]; 0.10%): insoluble | instantaneous solubility at stated concentration ([3]; 0.15%): insoluble | instantaneous solubility at stated concentration ([3]; 0.20%): insoluble | improvement (increase) in instantaneous solubility over the pure rebaudioside [3]: 75% | concentration of the rebaudioside in the instantaneously soluble 0.37% solution of the fermentation composition [3]: 0.14% | concentration of the rebaudioside in the instantaneously soluble 0.37% solution of the fermentation composition ([3]; listed as reb D): about 0.14% | instantaneous solubility [3]: < 0.08% | instantaneous solubility ([3]; listed as rebaudioside D): less than 0.08% | sweetness characteristics [6]: slow onset of sweetness and was very clean | times sweeter than sucrose (sugar) [6]: 200-220 times | Products [8]: Rebaudioside M, various
